In patent US20230295133A1, “PROCESS FOR PREPARING A COMPOUND USEFUL TO TREAT MYCOSES” (PULMOCIDE LIMITED, priority 2014, published 2023):
≈ marks a conversion by molar mass, not a printed value.

Assays:
[1] = system: aspergillus fumigatus (ATCC 13073 [strain: NIH 5233]); assay: Survival of severely immunosuppressed neutropenic infected mice, monotherapy and combination; format: in vivo, A/J mice; conditions: Example 1 0.4 mg/mL (in); Posaconazole 1 mg/kg (po); once daily days 1-6
Protocol: On day 0, animals were infected intranasally with 35 µL of the spore suspension (1.67 × 10^8 spores/mL in physiological saline) of aspergillus fumigatus (ATCC 13073 [strain: NIH 5233]). Compound Example (I), prepared as a suspension in isotonic saline (0.4 mg/mL), was dosed once daily by an intra-nasal injection (35 µL/mouse) on days 1-6 after infection. Posaconazole (1 mg/kg) was given orally once daily on days 1-6 after infection. Body weight and survival were monitored daily up to day 7.

[2] = system: aspergillus fumigatus (ATCC 13073 [strain: NIH 5233]); assay: In vivo anti-fungal activity, prophylactic and therapeutic treatment of infected immunocompromised neutropenic mice; set-up: species or system A/J mice; conditions: for Cell numbers in BALF, Macrophage / Cell numbers in BALF, Neutrophil / TNFα conc in serum: mean ± SEM
[3] = system: Aspergillus fumigatus (NCPF2010) invasion; assay: Aspergillus fumigatus infection of human alveoli bilayers (transwells), GM in lower chamber; format: cell-based; conditions: Posaconazole 0.01 µg/mL lower chamber
Protocol: In vitro models of human alveoli, consisting of a bilayer of human alveolar epithelial cells and endothelial cells, were prepared as previously described (Hope et al., 2007). This system allows administration of a test compound to the upper (“air” space) and/or lower (“systemic” space) compartments. This flexibility has been exploited to explore the effects of combination treatments by dosing compound Example 1 to the upper chamber and posaconazole or other anti-fungal agents to the lower chamber. Primary human pulmonary artery endothelial cells (HPAEC) were harvested and diluted to 10^6 cells/mL in EGM-2 media (Lonza, Basel, Switzerland). Transwells were inverted and the cell suspension (100 µL/well) was applied to the base of each transwell. The inverted transwells were incubated at RT within a flow hood for 2 hr after which they were turned upright. EGM-2 media was added to the lower (700 µL/well) and upper (100 µL/well) compartments and the transwells were incubated for 48 hr (37° C., 5% CO2). The EGM-2 media in the lower compartment was then replaced with fresh EGM-2 media. A549 cells were harvested and diluted to 5×10^5 cells/mL in 10% EBM, then added to the upper compartment (100 µL/well) of all transwells and the plates incubated for 72 hr (37° C., 5% CO2). Conidia of aspergillus fumigatus (the itraconazole sensitive strain NCPF2010 and the itraconazole resistant strain TR34-L98H) were cultured separately in Sabouraud dextrose agar for 3 days. A stock conidia suspension of either strain was prepared from a Sabouraud dextrose agar culture by washing with PBS-tween (10 mL; PBS containing 0.05% Tween-20, 100 U/mL Penicillin and 100 U/mL Streptomycin). The conidia count was assessed using a Neubauer haemocytometer and adjusted to 10^6 conidia/mL with PBS. A working stock of conidia was prepared in EBM (conc of 10^5 conidia/mL) immediately prior to use.
Test and reference compounds (or neat DMSO as the vehicle) were added to the appropriate wells of 24-well plates (3 µL/well containing 600 µL of 2% FBS EBM) for lower compartment treatment and to 96-well plates (1 µL/well containing 200 µL of 2% FBS EBM) for the treatment of the upper compartment, to provide a final DMSO concentration of 0.5%. The media in the upper compartment was aspirated and that containing the appropriate test and reference compounds, or vehicle, were added (100 µL/well). Transwells were then transferred into the 24-well plate containing the test and reference compounds or DMSO vehicle. After incubation for 1 hr (35° C., 5% CO2) the conidia suspension (10 µL/well) was added to the upper compartment of each transwell. Plates were then incubated for 24 hr (35° C., 5% CO2). Supernatants from each compartment (5 µL/compartment) were collected and stored (-20° C.). Media was replaced daily after collection of the supernatants and all wells were treated with test and reference compounds or with DMSO, as described above, for 3 days. Samples continued to be collected until fungal growth was visible by eye in all transwells. The levels of GM in the supernatant in lower compartment were then measured by ELISA (BioRad, CA, USA) as an index of aspergillus fumigatus invasion.

[4] = system: Chaectomium globosum ATCC44699; assay: Fungus panel screening, CLSI broth microdilution; format: cell-based
Protocol: Fungus panel screening was conducted by Eurofins Panlabs Inc. The MIC and MIC50 values of the test articles were determined following the guidelines of the Clinical and Laboratory Standards Institute, broth microdilution methods for yeast (CLSI M27-A2), (CLSI, 2002) and for filamentous fungi (CLSI M38-A), (CLSI, 2008).

[5] = prophylactic treatment (days 0, 1, 2 and 3), 0.4 mg/mL
[6] = prophylactic treatment, 0.08 mg/mL
[7] = prophylactic treatment, 0.4 mg/mL
[8] = prophylactic treatment, 2 mg/mL
[9] = therapeutic treatment (days 1, 2 and 3), 0.4 mg/mL
[10] = therapeutic treatment, 0.4 mg/mL
[11] = therapeutic treatment, 10 mg/mL
[12] = treatment day 1, Example 1 0.1 µg/mL upper chamber
[13] = treatment day 6, Example 1 0.1 µg/mL upper chamber

Cc1cc(N2CCN(c3ccc(C(=O)Nc4ccc(F)cc4)cc3)CC2)ccc1OC[C@@H]1CO[C@@](Cn2cncn2)(c2ccc(F)cc2F)C1 [Example 1, 4-(4-(4-(((3R,5R)-5-((1H-1,2,4-Triazol-1-yl)Methyl)-5-(2,4-Difluorophenyl)Tetra Hydrofuran-3-yl)Methoxy)-3-Methylphenyl)Piperazin-1-yl)-N-(4-Fluorophenyl) Benzamide]
Median survival [1]: 6 days | No. of survivors on day 7 [1]: 0/6 | Survivors on day 7 (%) [1]: 0% | % Inhibition versus Infected Controls, GM in BALF [2, 5]: 92% | % Inhibition versus Infected Controls, GM in serum [2, 5]: 95% | % Inhibition versus Infected Controls, Lung Fungal Load [2, 5]: 81% | Macrophage in BALF, % inhibition [2, 6]: 38% | Neutrophil in BALF, % inhibition [2, 6]: 24% | Cell numbers in BALF, Macrophage [2, 6]: 0.40 ± 0.15 ×10^5/mL | Cell numbers in BALF, Neutrophil [2, 6]: 0.37 ± 0.04 ×10^5/mL | Macrophage in BALF, % inhibition [2, 7]: 51% | Neutrophil in BALF, % inhibition [2, 7]: 47% | Cell numbers in BALF, Macrophage [2, 7]: 0.32 ± 0.07 ×10^5/mL | Cell numbers in BALF, Neutrophil [2, 7]: 0.26 ± 0.12 ×10^5/mL | TNFα conc in serum [2, 7]: 7.3 ± 3.5 pg/mL | Macrophage in BALF, % inhibition [2, 8]: 60% | Neutrophil in BALF, % inhibition [2, 8]: 55% | Cell numbers in BALF, Macrophage [2, 8]: 0.26 ± 0.05 ×10^5/mL | Cell numbers in BALF, Neutrophil [2, 8]: 0.22 ± 0.04 ×10^5/mL | TNFα conc in serum [2, 8]: 4.7 ± 0.4 pg/mL | % Inhibition versus Infected Control, GM in BALF [2, 9]: 94% | % Inhibition versus Infected Control, GM in serum [2, 9]: 91% | % Inhibition versus Infected Control, Lung Fungal Load [2, 9]: 97% | Macrophage in BALF, % inhibition [2, 10]: 34% | Neutrophil in BALF, % inhibition [2, 10]: 22% | Cell numbers in BALF, Macrophage [2, 10]: 0.43 ± 0.05 ×10^5/mL | Cell numbers in BALF, Neutrophil [2, 10]: 0.38 ± 0.04 ×10^5/mL | TNFα conc in serum [2, 10]: 6.2 ± 0.5 pg/mL | Macrophage in BALF, % inhibition ([2]; therapeutic treatment, 2 mg/mL): 38% | Neutrophil in BALF, % inhibition ([2]; therapeutic treatment, 2 mg/mL): 31% | Cell numbers in BALF, Macrophage ([2]; therapeutic treatment, 2 mg/mL): 0.40 ± 0.11 ×10^5/mL | Cell numbers in BALF, Neutrophil ([2]; therapeutic treatment, 2 mg/mL): 0.34 ± 0.05 ×10^5/mL | TNFα conc in serum ([2]; therapeutic treatment, 2 mg/mL): 5.5 ± 0.7 pg/mL | Macrophage in BALF, % inhibition [2, 11]: 51% | Neutrophil in BALF, % inhibition [2, 11]: 45% | Cell numbers in BALF, Macrophage [2, 11]: 0.32 ± 0.07 ×10^5/mL | Cell numbers in BALF, Neutrophil [2, 11]: 0.27 ± 0.08 ×10^5/mL | TNFα conc in serum [2, 11]: 4.9 ± 0.6 pg/mL | GM Levels in the Lower Chamber, OD value ([3]; treatment day 0, Example 1 0.1 µg/mL upper chamber): 0 OD | GM Levels in the Lower Chamber, % inhibition vs. control [3, 12]: 86% | GM Levels in the Lower Chamber, OD value [3, 12]: 0.091 OD | GM Levels in the Lower Chamber, % inhibition vs. control ([3]; treatment day 2, Example 1 0.1 µg/mL upper chamber): 3.4% | GM Levels in the Lower Chamber, % inhibition vs. control ([3]; treatment day 3, Example 1 0.1 µg/mL upper chamber): 3.7% | GM Levels in the Lower Chamber, % inhibition vs. control ([3]; treatment day 4, Example 1 0.1 µg/mL upper chamber): 4.5% | GM Levels in the Lower Chamber, % inhibition vs. control ([3]; treatment day 5, Example 1 0.1 µg/mL upper chamber): 0.3% | GM Levels in the Lower Chamber, % inhibition vs. control [3, 13]: -0.3% | GM Levels in the Lower Chamber, OD value [3, 13]: 1.18 OD | GM Levels in the Lower Chamber, % inhibition vs. control ([3]; treatment day 7, Example 1 0.1 µg/mL upper chamber): 0.9% | GM Levels in the Lower Chamber, % inhibition vs. control ([3]; treatment day 8, Example 1 0.1 µg/mL upper chamber): 2.8% | MIC50 ([4]; 50% inhibition by visual inspection (CLSI)): 0.063 µg/mL (≈ 0.0923 µM) | MIC ([4]; 100% inhibition by visual inspection (CLSI), read-out: MIC100): > 8 µg/mL
